# Assay results reported in publication PMC6934184, “Selective DNA-PKcs inhibition extends the therapeutic index of localized radiotherapy and chemotherapy” (The Journal of Clinical Investigation, 2019).
# Target: T1, TGFBR1 (ALK5) (Homo sapiens, UniProt P36897)
# T1 construct: purchased Thermo Fisher Scientific (Life Technologies) SelectScreen
# Test: SelectScreen LanthaScreen
# Type: binding
# Settings: read-out: % displacement
# Outline: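 SelectScreen broad panel; activity (Z'LYTE, Adapta) plus binding formats. ATP: Km app for CSF1R Z'LYTE; 10 for CAMK1 Adapta. Readout = % per kinase.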
# T1 sequence (P36897 34-503): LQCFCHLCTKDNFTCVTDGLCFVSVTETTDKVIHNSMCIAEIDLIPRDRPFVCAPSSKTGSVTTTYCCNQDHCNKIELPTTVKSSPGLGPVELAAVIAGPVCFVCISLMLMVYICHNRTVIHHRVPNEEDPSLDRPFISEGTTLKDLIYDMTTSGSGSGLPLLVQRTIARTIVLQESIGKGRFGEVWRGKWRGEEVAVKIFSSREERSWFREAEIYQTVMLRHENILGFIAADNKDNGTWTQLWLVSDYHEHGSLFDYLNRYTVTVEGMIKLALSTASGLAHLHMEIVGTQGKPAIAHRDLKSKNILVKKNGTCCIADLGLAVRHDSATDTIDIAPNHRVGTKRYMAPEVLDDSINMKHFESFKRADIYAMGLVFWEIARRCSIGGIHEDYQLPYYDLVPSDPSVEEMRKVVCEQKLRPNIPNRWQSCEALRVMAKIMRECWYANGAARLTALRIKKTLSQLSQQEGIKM
smiles,measurement,value
CN(C(=O)CN1CCOCC1)c1ccc2sc3c(-c4cccc5c(=O)cc(N6CC7CCC(C6)O7)oc45)cccc3c2c1 [NU5455],inhibition at 1 µM,-0.4%
